Tests used:
CYP3A = conditions: in vivo; cited from earlier work
Intravenous = conditions: for EH (hepatic extraction) / AUC(0-inf) / Cmax: 6.0 mg IV methadone HCl; for AUC(0-t) / AUC(0-inf) / Cmax: human, plasma, iv, 6 mg; for AUC(0-t): AUC0-96, 6.0 mg IV methadone HCl; for AUC(0-inf): AUC0-∞
Oral = conditions: human, plasma, 11 mg, control
[1] = system: dark-adapted pupil diameter (miosis); test: Methadone pupil effect; format: in vivo, human; conditions: for AUEC0-∞ / Maximum miosis: 6.0 mg IV and 11.0 mg oral methadone HCl
[2] = steady-state ritonavir/indinavir

SMILES: Cc1c(O)cccc1C(=O)N[C@@H](CSc1ccccc1)[C@H](O)CN1C[C@H]2CCCC[C@H]2C[C@H]1C(=O)NC(C)(C)C [nelfinavir]
- inhibition of hepatic and first-pass CYP3A (CYP3A): > 75%

SMILES: CCC(=O)C(C[C@H](C)N(C)C)(c1ccccc1)c1ccccc1 [S-methadone]
- EH (hepatic extraction) (Intravenous; acute ritonavir/indinavir): 0.10 ± 0.04
- EH (hepatic extraction) (Intravenous; control): 0.08 ± 0.02
- EH (hepatic extraction) (Intravenous; [2]): 0.10 ± 0.04
- AUC(0-t) (Intravenous; acute ritonavir/indinavir): 353 ± 150 ng·h/mL
- AUC(0-t) (Intravenous; control): 401 ± 81 ng·h/mL
- AUC(0-t) (Intravenous; [2]): 377 ± 170 ng·h/mL
- AUC(0-inf) (Intravenous; acute ritonavir/indinavir): 390 ± 178 ng·h/mL
- AUC(0-inf) (Intravenous; control): 436 ± 91 ng·h/mL
- AUC(0-inf) (Intravenous; [2]): 406 ± 185 ng·h/mL
- Cmax (Intravenous; acute ritonavir/indinavir): 69 ± 26 ng/mL
- Cmax (Intravenous; control): 90 ± 53 ng/mL
- Cmax (Intravenous; [2]): 80 ± 33 ng/mL
- AUC(0-t) (Oral; AUC0-96, 11.0 mg oral methadone HCl): 639 ± 165 ng·h/mL
- AUC(0-inf) (Oral; AUC0-∞, 11.0 mg oral methadone HCl): 710 ± 185 ng·h/mL
- Cmax (Oral; Cmax, 11.0 mg oral methadone HCl): 23 ± 6 ng/mL

SMILES: CCC(=O)C(CC(C)N(C)C)(c1ccccc1)c1ccccc1 (centres unmarked) [methadone]
- AUEC0-∞ ([1]; acute ritonavir/indinavir): 65 ± 26 mm/h
- Maximum miosis ([1]; acute ritonavir/indinavir): 3.5 ± 0.7 mm
- AUEC0-∞ ([1]; control): 52 ± 24 mm/h
- Maximum miosis ([1]; control): 2.9 ± 1.0 mm
- AUEC0-∞ [1, 2]: 48 ± 25 mm/h
- Maximum miosis [1, 2]: 3.2 ± 0.8 mm
- methadone miosis and concentration-effect relationships, change by acute or steady-state ritonavir/indinavir ([1]; in vivo): not significantly changed

— article PMC3111241 (Anesthesiology, 2009)
